From PubChem BioAssay AID310 (DTP/NCI, 2004)
“And” between values parts separate entries of the source, which are not always exact repeats. Identical values can stand only once. Results filed as inconclusive are left out.

System: C3AKF1 mice, osteogenic sarcoma HE10734 s.c., tumor weight T/C
Test: NCI In Vivo Anticancer Drug Screen. Data for tumor model Osteogenic Sarcoma HE 10734 (subcutaneous) in C3AKF1 (CHKRF1) mice
Settings: endpoint: mean tumor weight, schedule: Q01DX010 (ip), higher = larger tumour
Protocol: The antitumor activity of compounds was measured in mice bearing transplantable tumors. Survival or tumor size were measured and the results are expressed as the measurement made in the treated group (T) divided by the measurement made in the vehicle treated control group (C). The tumor model used in this assay is Osteogenic Sarcoma HE 10734 (subcutaneous) in C3AKF1 (CHKRF1) mice

[1] = dose: 12.5 mg/kg/injection, vehicle: carboxymethylcellulose (CMC)
[2] = dose: 25.0 mg/kg/injection, vehicle: carboxymethylcellulose (CMC)
[3] = dose: 50.0 mg/kg/injection, vehicle: carboxymethylcellulose (CMC)
[4] = dose: 125.0 mg/kg/injection, vehicle: saline
[5] = dose: 250.0 mg/kg/injection, vehicle: saline
[6] = dose: 500.0 mg/kg/injection, vehicle: saline
[7] = dose: 6.25 mg/kg/injection, vehicle: carboxymethylcellulose (CMC)
[8] = dose: 75.0 mg/kg/injection, vehicle: saline
[9] = dose: 150.0 mg/kg/injection, vehicle: saline
[10] = dose: 50.0 mg/kg/injection, vehicle: saline
[11] = dose: 100.0 mg/kg/injection, vehicle: saline
[12] = dose: 200.0 mg/kg/injection, vehicle: saline
[13] = dose: 4.0 mg/kg/injection, vehicle: carboxymethylcellulose (CMC)
[14] = dose: 8.0 mg/kg/injection, vehicle: carboxymethylcellulose (CMC)
[15] = dose: 16.0 mg/kg/injection, vehicle: carboxymethylcellulose (CMC)
[16] = dose: 24.0 mg/kg/injection, vehicle: carboxymethylcellulose (CMC)
[17] = dose: 55.0 mg/kg/injection, vehicle: carboxymethylcellulose (CMC)
[18] = dose: 85.0 mg/kg/injection, vehicle: carboxymethylcellulose (CMC)
[19] = dose: 125.0 mg/kg/injection, vehicle: carboxymethylcellulose (CMC)
[20] = dose: 2.5 mg/kg/injection, vehicle: carboxymethylcellulose (CMC)
[21] = dose: 10.0 mg/kg/injection, vehicle: carboxymethylcellulose (CMC)
[22] = dose: 25.0 mg/kg/injection, vehicle: saline

O=C(O)Cc1ccc(C2CCCCC2)cc1
T/C (dose: 150.0 mg/kg/injection, vehicle: carboxymethylcellulose (CMC)): 95 % of control

CCCCn1cnc2c(=S)nc(N)[nH]c21
T/C (dose: 3.0 mg/kg/injection, vehicle: saline): 49 % of control | T/C (dose: 6.0 mg/kg/injection, vehicle: saline): 51 % of control | T/C (dose: 11.0 mg/kg/injection, vehicle: saline): 29 % of control | T/C (dose: 22.0 mg/kg/injection, vehicle: saline): 7 % of control

Nc1nc(SCc2ccccc2Cl)c2ncn(C3OC(CO)C(O)C3O)c2n1 (stereo not given)
T/C [1]: 90 % of control | T/C [2]: 81 % of control | T/C [3]: 61 % of control

Nc1nc(SCc2ccccc2)c2ncn(C3CCCC3)c2n1
T/C [4]: 80 % of control | T/C [5]: 115 % of control | T/C [6]: 83 % of control | T/C (dose: 1000.0 mg/kg/injection, vehicle: saline): 63 % of control

O=C(c1ccc(C(=O)N2CC2)cc1)N1CC1
T/C (dose: 3.13 mg/kg/injection, vehicle: carboxymethylcellulose (CMC)): 55 % of control | T/C [7]: 106 % of control | T/C [1]: 118 % of control

CC1(C)CC(C)(c2ccccc2)c2ccccc21 (stereo not given)
T/C [8]: 92 % of control | T/C [9]: 70 % of control | T/C (dose: 300.0 mg/kg/injection, vehicle: saline): 52 % of control

CCCC(Sc1nc(N)nc2nc[nH]c12)C(=O)O (stereo not given)
T/C [10]: 80 % of control | T/C [11]: 53 % of control | T/C [12]: 40 % of control | T/C (dose: 400.0 mg/kg/injection, vehicle: saline): 17 % of control

N#CCSc1nc(N)nc2nc[nH]c12
T/C (dose: 2.0 mg/kg/injection, vehicle: carboxymethylcellulose (CMC)): 90 % of control | T/C [13]: 107 % of control | T/C [14]: 86 % of control | T/C [15]: 91 % of control | T/C [16]: 113 % of control | T/C (dose: 35.0 mg/kg/injection, vehicle: carboxymethylcellulose (CMC)): 93 % of control | T/C [17]: 90 % of control and 100 % of control | T/C [18]: 44 % of control | T/C [19]: 22 % of control

C=CC(=O)NCNC(=O)C=C
T/C (dose: 37.5 mg/kg/injection, vehicle: saline): 66 % of control | T/C [8]: 65 % of control

NC(=O)c1ccc(NC(=O)CCC(=O)Nc2ccc(C(N)=O)cn2)nc1
T/C (dose: 0.66 mg/kg/injection, vehicle: carboxymethylcellulose (CMC)): 118 % of control and 120 % of control | T/C [20]: 67 % of control

CCN(CC)CCN1C(=O)c2cccc3cccc(c23)C1=O
T/C [2]: 86 % of control | T/C [3]: 78 % of control | T/C (dose: 100.0 mg/kg/injection, vehicle: carboxymethylcellulose (CMC)): 85 % of control

CC(C)([NH-])CO.CC(C)([NH-])CO.[Cl][Cd][Cl]
T/C [20]: 88 % of control | T/C (dose: 5.0 mg/kg/injection, vehicle: carboxymethylcellulose (CMC)): 57 % of control | T/C [21]: 25 % of control

Nc1ncnc2c1ncn2C1CCCO1 (stereo not given)
T/C [8]: 86 % of control | T/C [9]: 54 % of control

C=CCn1c(=O)n(CC=C)c(=O)n(CC=C)c1=O
T/C (dose: 31.0 mg/kg/injection, vehicle: saline): 84 % of control | T/C (dose: 62.0 mg/kg/injection, vehicle: saline): 94 % of control | T/C [4]: 69 % of control | T/C (dose: 375.0 mg/kg/injection, vehicle: saline): 31 % of control

CCOc1ccc(Nc2ncnc3nc[nH]c23)cc1CN(CCCl)CCCl
T/C (dose: 1.0 mg/kg/injection, vehicle: carboxymethylcellulose (CMC)): 86 % of control | T/C [13]: 94 % of control | T/C [14]: 83 % of control and 95 % of control

CC(C)Sc1nc(N)nc2nc[nH]c12
T/C [22]: 71 % of control | T/C [10]: 83 % of control | T/C [11]: 76 % of control | T/C [12]: 23 % of control

O=C(NO)c1ccncc1
T/C [4]: 113 % of control | T/C [5]: 123 % of control | T/C [6]: 102 % of control

O=C(O)C1(NO)CCCC1
T/C (dose: 15.0 mg/kg/injection, vehicle: saline): 88 % of control | T/C (dose: 23.0 mg/kg/injection, vehicle: saline): 112 % of control | T/C (dose: 35.0 mg/kg/injection, vehicle: saline): 71 % of control | T/C (dose: 112.0 mg/kg/injection, vehicle: saline): 29 % of control

CCCCCCC(=O)NC1=C(N2CC2)C(=O)C(NC(=O)CCCCCC)=C(N2CC2)C1=O
T/C (dose: 15.0 mg/kg/injection, vehicle: carboxymethylcellulose (CMC)): 104 % of control | T/C (dose: 30.0 mg/kg/injection, vehicle: carboxymethylcellulose (CMC)): 83 % of control | T/C (dose: 60.0 mg/kg/injection, vehicle: carboxymethylcellulose (CMC)): 50 % of control | T/C (dose: 120.0 mg/kg/injection, vehicle: carboxymethylcellulose (CMC)): 33 % of control

O=c1[nH]c2cc(Cl)c(Cl)cc2o1
T/C [21]: 84 % of control | T/C [15]: 113 % of control | T/C [16]: 74 % of control | T/C (dose: 37.0 mg/kg/injection, vehicle: carboxymethylcellulose (CMC)): 105 % of control and 117 % of control | T/C [17]: 80 % of control | T/C [18]: 98 % of control

C/C=C1\CN(C)[C@H]2Cc3c([nH]c4ccccc34)[C@@H](c3cc4[nH]c5c(c4cc3OC)CCN3C[C@H]4C[C@H](CC)[C@H]3[C@@]5(C(=O)OC)C4)C[C@H]1C2C(=O)OC (stereo not given in full)
T/C (dose: 20.0 mg/kg/injection, vehicle: water): 49 % of control

Cc1ccc(N2CCN(CCCN3CCN(c4ccc(Cl)cc4)CC3)CC2)cc1
T/C [7]: 97 % of control | T/C [1]: 77 % of control | T/C [2]: 102 % of control

COc1ccc(-c2c(CC(=O)O)c3cc(OC)ccc3n2Cc2ccc(Cl)cc2)cc1
T/C [19]: 116 % of control | T/C (dose: 250.0 mg/kg/injection, vehicle: carboxymethylcellulose (CMC)): 66 % of control | T/C (dose: 500.0 mg/kg/injection, vehicle: carboxymethylcellulose (CMC)): 54 % of control | T/C (dose: 1000.0 mg/kg/injection, vehicle: carboxymethylcellulose (CMC)): 56 % of control

O=C1N(Cl)C(=O)C(c2ccc(Cl)cc2)(c2ccc(Cl)cc2)N1Cl
T/C (dose: 10.0 mg/kg/injection, vehicle: saline): 70 % of control | T/C (dose: 20.0 mg/kg/injection, vehicle: saline): 58 % of control | T/C (dose: 40.0 mg/kg/injection, vehicle: saline): 90 % of control | T/C (dose: 80.0 mg/kg/injection, vehicle: saline): 67 % of control and 77 % of control | T/C (dose: 120.0 mg/kg/injection, vehicle: saline): 48 % of control | T/C (dose: 180.0 mg/kg/injection, vehicle: saline): 55 % of control | T/C (dose: 270.0 mg/kg/injection, vehicle: saline): 53 % of control

O=P(c1ccccc1)(N1CC1)N1CC1
T/C (dose: 3.13 mg/kg/injection, vehicle: saline): 106 % of control | T/C (dose: 6.25 mg/kg/injection, vehicle: saline): 93 % of control | T/C (dose: 12.5 mg/kg/injection, vehicle: saline): 105 % of control | T/C [22]: 68 % of control and 71 % of control
